Results on 1 compound are retold here after patent US20150025031A1, “METABOLIC DOWNREGULATION FOR CELL SURVIVAL” (WAKE FOREST UNIVERSITY HEALTH SCIENCES, priority 2012, published 2015).

“Also recorded” adds a separate entry of the source.

For data set [1], the system named is tibialis anterior (TA) muscle. Description: Compartment syndrome (compression injury) model, tibialis anterior muscle function. Particulars: for recovery in muscle function vs control group / percent recovery of muscle function: tetanic outcome at 100 Hz. Format: in vivo, Sprague Dawley rats. As for the experimental part:
Compartment syndrome model: Neonatal blood pressure cuffs were placed on the hind limbs of Sprague Dawley rats. A pressure of 130-140 mmHg was held for 3 hrs to induce compartment syndrome in the tibialis anterior (TA) muscle. The experimental group received 50 mM CDA in 300 uL saline daily up to day 2 after injury whereas the control group only received an equal volume of saline (n=6 per each group). The measurement of muscle tetanic force was used to assess in vivo muscle function at before injury and day 3 & 7.
All animal studies were performed in strict compliance with Wake Forest University IACUC and NIH guidelines. Male Lewis rats (6-8 weeks old, Harlan) were anesthetized with 2-3% isofluorane prior to all procedures. A #2 sized neonatal blood pressure cuff (Trimline Medical Products Tempa-Kuff) was tightened around the hind limb proximal to the extensor digitorum longus (EDL) muscle. The time and amount of pressure used varied as indicated. Due to the extended length of anesthesia, rats were administered IP injections of saline over the course of the procedure. Rats were euthanized at 1, 2, 4, 7, 14 or 35d post injury. At least 3 separate experiments were analyzed.
Neonatal blood pressure cuffs were placed on the hind limbs of Sprague Dawley rats. A pressure of 130-140 mmHg was held for 3 hours to induce compartment syndrome in the tibialis anterior (TA) muscle. The experimental group received injection of 30 mM cladribine in 200 μL saline daily up to day 2 after injury whereas the control group only received an equal volume of saline (n=6). The measurement of muscle tetanic force was used to assess in vivo muscle function at before and right after injury, day 3, 7, 11 and 14.
Contractile function (i.e., torque-frequency relationship) of the left anterior crural muscles was measured in vivo using similar methodology as previously described for mice (Kalka et al., 2000, Proc Natl Acad Sci USA 97:3422-3427; Boutilier, 2001, J Exp Biol 204:3171-3181) After rats were anesthetized (2-2.5% isoflurane), the left hindlimb was aseptically prepared. The rat was then placed on a heated platform. The left knee was clamped and the left foot was secured to a custom-made foot plate that is attached to the shaft of an Aurora Scientific 305C-LR-FP servomotor, which in turn was controlled using a PC. Sterilized percutaneous needle electrodes were inserted through the skin for stimulation of the left common peroneal nerve. Electrical stimulus was applied using a Grass S88 stimulator with a constant current SIU (Grass Model PSIU6). Stimulation voltage and needle electrode placement were optimized first with a series of twitch contractions at 1 hz and then with 5 to 10 isometric contractions (400 ms train of 0.05-0.1 ms pulses at 100 Hz). Contractile function of the anterior crural muscles was assessed by measuring maximal isometric torque as a function of stimulation frequency (1-200 Hz). For real-time analysis of torque and length changes, voltage outputs were sampled at 4000 Hz, converted to a digital signal using an A/D board (National Instruments PCI 6221) and recorded using a PC loaded with a custom-made Labview®-based program (provided by the U.S. Army Institute of Surgical Research).

In data set [2] the test system is C2C12 mouse myoblasts.
In data set [3] the test system is ischemic skin flap. Description: Ischemic skin flap model. Format: in vivo, nude mice. Particulars: 100 mM in 2% agarose gel, vs control. As for the experimental part:
Skin flap model: The u-shaped skin flaps were created on the back of the nude mice, then silicone sheet with 100 mM CDA-containing 2% agarose gel on top of it was placed subcutaneously between muscle and skin layer (FIGS. 9A-9B). Control group received only the materials without CDA incorporated (n=3 per each group). At day 3, the flap necrosis was photographed, and H&E sections were prepared and microscopically examined.
The u-shaped skin flaps were created on the back of the nude mice, then silicone sheet with 100 mM CDA-containing 2% agarose gel (A9045, Sigma) on top of it was placed subcutaneously between muscle and skin layer (FIG. 29A). Control group received only the materials without CDA incorporated (n=3). At day 3, the flap necrosis was photographed, and H&E sections were microscopically examined.

The subject of data set [4] is C2C12 mouse myoblasts. The settings on record: 5 mM, regardless of the presence of ADA.
Data set [5] relates to Rat tibialis anterior (TA) muscle tissues. Description: In vitro ischemic tibialis anterior muscle tissue survival (H&E, TUNEL). Format: cell-based, Sprague Dawley rats. Particulars: 5 mM injected, 3 days incubation. The method, then:
Rat tibialis anterior (TA) muscle tissues were dissected immediately after sacrifice of Sprague Dawley rats (17 weeks old, 380-400 g, Harlan), injected with blank, 5 mM of adenosine or cladribine, and then incubated in 5 mL of complete media for 3 days.
The tissue samples were fixed in 10% neutral buffered formalin (Sigma-Aldrich), 6 μm sections were generated by a cryotome (Leica), and stained with hematoxyline and eosin (H&E) and with TUNEL staining. Microscopic analyses were performed using a light microscope (Zeiss M1) and ImagePro software.

The target in data set [6] is T1, adenosine deaminase (ADA) (Homo sapiens, UniProt P00813).
T1 construct: purchased Sigma
T1 sequence (P00813 1-363): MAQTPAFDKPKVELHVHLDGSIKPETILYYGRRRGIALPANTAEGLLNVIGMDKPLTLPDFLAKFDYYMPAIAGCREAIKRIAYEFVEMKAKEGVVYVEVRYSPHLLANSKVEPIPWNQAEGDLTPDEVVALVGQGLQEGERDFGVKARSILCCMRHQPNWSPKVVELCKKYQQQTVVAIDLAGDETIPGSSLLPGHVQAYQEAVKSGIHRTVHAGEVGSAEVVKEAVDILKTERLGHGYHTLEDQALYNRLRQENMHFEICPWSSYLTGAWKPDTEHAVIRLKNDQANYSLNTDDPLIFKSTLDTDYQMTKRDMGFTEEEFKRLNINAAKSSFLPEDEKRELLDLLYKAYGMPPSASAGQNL
Description: Cell viability with adenosine derivatives in presence or absence of ADA, normoxic conditions (Example 2). Format: cell-based. The settings on record: for conversion by ADA / stability towards adenosine degrading enzymes: presence of ADA. As for the experimental part:
Three known ADA inhibitors were examined to evaluate the efficacies of adenosine derivatives: cladribine, pentostatin, and fludarabine phosphate. They have similar structures and molecular weights compared to adenosine, but different functional groups in the structures. Metabolic rate of cells were indirectly analyzed by cell viability in the presence or absence of adenosine derivatives and ADA in various doses. Cell viability with the drugs was evaluated under normoxic conditions.
Adenosine (Sigma-Aldrich), cladribine (Sigma, 2-Chloro-2′-deoxyadenosine), pentostatin (Tocris biosciences), and fludarabine phosphate (LGM Pharma) were used throughout this study.

Regarding `Nc1nc(Cl)nc2c1ncn2[C@H]1C[C@H](O)[C@@H](CO)O1` [cladribine, 2-Chloro-2′-deoxyadenosine], the “TA muscle twitch isometric torque” value in data set [1] (30 mM in 200 μL saline daily up to day 2, 7 days after injury) was “significantly increased”. For the same compound, the “recovery in muscle function vs control group” value is listed as “significant acceleration of recovery in muscle function” in data set [1] (30 mM in 200 μL saline daily up to day 2) and “significant increase in percent recovery up to day 11” in data set [1] (30 mM in 200 μL saline daily up to day 2, listed as CDA). Further, the “newly forming vessels (H&E, immunostaining)” value in data set [1] (30 mM in 200 μL saline daily up to day 2, vs saline group) was “more newly forming vessels”. Moreover, the “anterior crural muscle twitch isometric torque” value in data set [1] (50 mM in 300 uL saline daily up to day 2, 7 days after injury) is listed as “significantly increased”. For the same compound, the “percent recovery of muscle function” value is given as approximately 10% in data set [1] (day 3, 50 mM in 300 uL saline daily up to day 2) and approximately 35% in data set [1] (day 7, 50 mM in 300 uL saline daily up to day 2). For the same compound, the “metabolism after drug and hypoxia removed” value in data set [2] (5 mM, with or without ADA) is on record as “regained metabolism activity”. Moreover, the “cellular metabolism under hypoxia” value in data set [2] (5 mM, with or without ADA, MTS) is “kept in hypometabolic steady state without being affected by ADA”. For the same compound, the “metabolic activity per cell vs adenosine treated cells” value in data set [2] (hypoxia, in the presence and absence of ADA) is listed as “significantly lower metabolic activity per cell”. In data set [3] (3 days), the “histological examination of skin flap (H&E)” value was “better preservation of general tissue architecture, thickness of the skin and epidermis height”. Also, the “distal flap necrosis (skin discoloration)” value in data set [3] (subcutaneous, day 3 post-operation) was “clearly reduced”. The “cell population under hypoxic condition” value in data set [4] (7 days hypoxia) is recorded as “maintained minimal population with significant difference when compared to control”. In addition, the “proliferation after drug and hypoxia removed” value in data set [4] is listed as “regained their proliferation capability”. Besides, the “muscle structure (H&E)” value in data set [5] is recorded as “most preserved muscle structure”. Further, the “number of live nuclei (TUNEL)” value in data set [5] is reported as “increased number of live nuclei”. The area of fiber result in data set [5] (vs control and adenosine) is “significantly increased area of fiber”. The “recovery of metabolic state after drug removal” value in data set [6] (drugs removed on day 5) is listed as “recovered their normal metabolic state once the drugs were removed”. In data set [6] (normoxic conditions, with or without ADA, various doses), the “depression of cell metabolic rate (cell viability) in presence of ADA” value was “best able to inhibit ADA and depress the cells' metabolic rate; also recorded: maintained the cells in hypometabolic steady state the longest”. Moreover, the “conversion by ADA / stability towards adenosine degrading enzymes” value in data set [6] was “bypassed the conversion by ADA”; in data set [6] (listed as CDA), “more stable than adenosine in the presence of adenosine degrading enzymes”.
